The target in test [1] is T1, S-ribosylhomocysteine lyase (Bacillus subtilis (strain 168), UniProt O34667).
T1 sequence (O34667 whole entry): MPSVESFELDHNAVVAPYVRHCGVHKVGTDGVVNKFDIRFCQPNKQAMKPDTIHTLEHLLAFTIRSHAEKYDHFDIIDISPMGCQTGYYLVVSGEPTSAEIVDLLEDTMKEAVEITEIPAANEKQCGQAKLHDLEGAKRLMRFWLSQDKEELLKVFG
The test can be described thus: Competitive inhibition of Bacillus subtilis LuxS preincubated for 30 mins by UV-vis spectrophotometric analysis.

Test [2] concerns the target T2, S-ribosylhomocysteine lyase (Bacillus subtilis (strain 168)) (UniProt O34667).
T2 sequence (whole entry): T1 sequence (O34667 whole entry)
The test is described as above.

The target of test [3] is T2, S-ribosylhomocysteine lyase (Bacillus subtilis (strain 168)). In words: Inhibition of Bacillus subtilis LuxS at 20 to 50 uM by UV-vis spectrophotometric analysis. To be noted: TDE = time-dependent effect.
The target is the same in test [4]. The test can be described thus: Inhibition of Bacillus subtilis LuxS preincubated for 15 mins by UV-vis spectrophotometric analysis.
The target is the same in test [5]. In words: Competitive inhibition of Bacillus subtilis LuxS preincubated for 15 mins by UV-vis spectrophotometric analysis.

Each structure is given as a SMILES string. Calls of active or inactive are those of the source. The rule behind the calls is not given here.

Regarding `N[C@@H](CCSC[C@H]1NC(O)[C@H](O)[C@@H]1O)C(=O)O` (mixture of isomers), the IC50 (usually the concentration needed to halve the response being measured) in test [1] was 60 µM. Also, the Ki – broadly, a measure of affinity in units of concentration, obtained from inhibition or displacement – in test [2] is 3.5 µM. Also, in test [3], the inhibition entry is “tde”.
Turning to `NC(CCSC[C@@H]1CCC(=O)N1)C(=O)O` (mixture of isomers), the inhibition entry in test [4] was “inactive”.
Consider `N[C@@H](CCSC[C@H]1NC[C@H](O)[C@@H]1O)C(=O)O`, for which the inhibition result in test [5] is “Dose-dependent effect”.
On to `CC1=N[C@H](CSCCC(N)C(=O)O)[C@@H](O)[C@H]1O` (mixture of isomers), for which, in test [4], the inhibition result was “inactive”.
In the case of `N[C@@H](CCSC[C@@H]1[C@@H](O)[C@@H](O)C(=O)N1Cc1ccccc1)C(=O)O`, in test [4], the inhibition result is “inactive”.
`N[C@@H](CCSC[C@@H]1CCC(O)N1)C(=O)O` (mixture of isomers): the inhibition entry in test [4] is “inactive”.
In the case of `CCCSC[C@@H]1CCC(O)N1` (mixture of isomers), in test [4], the inhibition result was “inactive”.

The values above are taken from ChEMBL document CHEMBL1817599, “Inhibition of LuxS by S-ribosylhomocysteine analogues containing a [4-aza]ribose ring” (Bioorg Med Chem, 2011).
